Measurements published in patent publication US20250188110A1, “SPECIFIC SMALL MOLECULE INHIBITORS THAT BLOCK KMT9 METHYLTRANSFERASE ACTIVITY AND FUNCTION” (ALBERT-LUDWIGS-UNIVERSITÄT FREIBURG, priority 2021, published 2025).

Assays:
SW480 = assay: Further cell proliferation assay, X-Celligence RTCA, SW480; format: cell-based; details: Homo sapiens
Description: (§1) Compound no. 1 (Name 287) was tested in further cell proliferation assays using different cancer cell lines. Cell proliferation was determined using X-Celligence RTCA system (Roche). For real-time recording of CAL-29, VM-CUB1, SW480, SKBR3, HT-1376, PC-3M, A549, UM-UC-3, DU145 and 22RV1, between 2500 and 20000 cells/well (depending on the cell type) were seeded in 16 well E-plates (Roche). Cells were seeded in presence of DMSO or Compound no. 1 (Name 287) 24 h before seeding in E-plates. Cell indices were automatically recorded every 15 minutes. Relative velocities represent the change of the cell index over time. The ECso values of compound no.

VM-CUB1 = assay: Further cell proliferation assay, X-Celligence RTCA, VM-CUB1; format: cell-based; details: Homo sapiens, VM-CUB-1
Description: as §1

SKBR3 = assay: Further cell proliferation assay, X-Celligence RTCA, SKBR3; format: cell-based; details: Homo sapiens, SK-BR-3
Description: as §1

CAL-29 = assay: Further cell proliferation assay, X-Celligence RTCA, CAL-29; format: cell-based
Description: as §1

HT-1376 = assay: Further cell proliferation assay, X-Celligence RTCA, HT-1376; format: cell-based; details: Homo sapiens
Description: as §1

PC-3M = assay: Further cell proliferation assay, X-Celligence RTCA, PC-3M; format: cell-based; details: Homo sapiens, castration resistant prostate cancer cells
Description: as §1

A549 = assay: Further cell proliferation assay, X-Celligence RTCA, A549; format: cell-based; details: Homo sapiens
Description: as §1

22RV1 = assay: Further cell proliferation assay, X-Celligence RTCA, 22RV1; format: cell-based; details: Homo sapiens; 22RV1, castration resistant prostate cancer cells
Description: as §1

DU145 = assay: Further cell proliferation assay, X-Celligence RTCA, DU145; format: cell-based; details: Homo sapiens, DU-145; DU145, castration resistant prostate cancer cells
Description: as §1

UM-UC-3 = assay: Further cell proliferation assay, X-Celligence RTCA, UM-UC-3; format: cell-based; details: Homo sapiens, UMUC3
Description: as §1

KMT9 [1] = biological target: T1, KMT9 (Homo sapiens, UniProt Q9Y5N5); assay: Microscale thermophoresis (MST) KMT9 binding; details: His-tag labelled KMT9 20 nM; read-out: MST (Kd)
T1 sequence (Q9Y5N5 1-214): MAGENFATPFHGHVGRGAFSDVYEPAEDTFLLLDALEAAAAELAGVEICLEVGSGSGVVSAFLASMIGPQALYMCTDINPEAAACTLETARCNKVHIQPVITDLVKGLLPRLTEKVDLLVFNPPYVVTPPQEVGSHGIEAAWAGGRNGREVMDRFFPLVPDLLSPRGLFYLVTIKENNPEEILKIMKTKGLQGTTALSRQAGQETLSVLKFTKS
T1 sequence (Q9UI30 1-120 isoform Q9UI30-2 partner): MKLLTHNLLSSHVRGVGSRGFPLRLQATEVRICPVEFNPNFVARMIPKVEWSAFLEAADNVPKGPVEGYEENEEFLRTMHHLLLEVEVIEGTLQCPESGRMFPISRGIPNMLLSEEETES
Method in brief: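 Kd from microscale thermophoresis: compound series against 20 nM His-KMT9 labelled via RED-Tris-NTA, buffer 25 mM HEPES (pH 7.5)/100 mM NaCl/1 mM DTT/0.05% Tween, 40% MST power, 100% LED. Reported as classes: A ≤10 nM, B >10–100 nM, C >100–1000 nM, D >1000 nM.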

KMT9 [2] = biological target: T1, KMT9; assay: KMT9 methyltransferase inhibition assay, MTaseGlo luminescence (from entry 155); format: biochemical; details: MTaseGlo procedure (entries from 155); 100 nM KMT9, 5 μM ETF1, 1 μM SAM; read-out: Inhibition (IC50)
Method in brief: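 KMT9 (100 nM final) pre-incubated with inhibitor for 15 min at room temperature, then reacted with 5 μM ETF1 and 1 μM SAM for 2 h at 30° C. at 2% DMSO final. MTaseGlo luminescence read after 60 min detection; IC50 reported in four potency bins.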

KMT9 [3] = biological target: T1, KMT9; assay: KMT9 thermal shift assay (SyproOrange); format: binding; details: 500 µM compound, 2 μM KMT9; read-out: Thermal shift (ΔTm)
Method in brief: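 ΔTm versus DMSO-only control is reported in bins (>20 K, 15–20 K, 10–15 K, ≤10 K), using Tm from Boltzmann sigmoidal fits of SyproOrange melt curves. KMT9 with compound in pH 8.5 BTP buffer containing MgCl2 and DTT was preincubated at 25° C, then ramped 1° C per 15 s up to 95° C.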

Kd (KMT9 [1]) | IC50 (KMT9 [2]) | ΔTm at 500 µM (KMT9 [3]) | SMILES | further results
– | – | – | CNc1ncnc2c1ccn2[C@@H]1C[C@H](CNCCCNCCc2cccc(Oc3ccccc3)c2)[C@@H](O)[C@H]1O [Compound 287, (1R,2S,3R,5R)-3-(4-(methylamino)-7H-pyrrolo[2,3-d]pyrimidin-7-yl)-5-(((3-((3-phenoxyphenethyl)amino)propyl)amino)methyl) cyclopentane-1,2-diol] | EC50 (SW480): 9120 nM; EC50 (VM-CUB1): 6170 nM; EC50 (SKBR3): 6600 nM; EC50 (CAL-29): 6450 nM; EC50 (HT-1376): 12600 nM; EC50 (PC-3M): 15800 nM; EC50 (A549): 12000 nM; EC50 (22RV1): 16600 nM; EC50 (DU145): 19000 nM; EC50 (UM-UC-3): 17000 nM
10 to 100 nM | 1000 to 10000 nM | 10 to 15 °C | COc1cccc([C@H]2C[C@@H](n3cc(Br)c4c(N)nc(Cl)nc43)[C@H](O)[C@@H]2O)c1 [Compound 669, (1R,2S,3R,5R)-3-(4-amino-5-bromo-2-chloro-7H-pyrrolo[2,3-d]pyrimidin-7-yl)-5-(3-methoxyphenyl)cyclopentane-1,2-diol] | –
≤ 10 nM | 100 to 1000 nM | 10 to 15 °C | COc1cccc([C@H]2C[C@@H](n3ccc4c(N)nc(Cl)nc43)[C@H](O)[C@@H]2O)c1 [Compound 670, (1R,2S,3R,5R)-3-{4-amino-2-chloropyrrolo[2,3-d]pyrimidin-7-yl}-5-(3-methoxyphenyl)cyclopentane-1,2-diol] | –
10 to 100 nM | 1000 to 10000 nM | 10 to 15 °C | COc1cccc([C@H]2C[C@@H](n3cc(-c4ccn(C)n4)c4c(N)nc(Cl)nc43)[C@H](O)[C@@H]2O)c1 [Compound 671, (1R,2S,3R,5R)-3-(4-amino-2-chloro-5-(1-methyl-1H-pyrazol-3-yl)-7H-pyrrolo[2,3-d]pyrimidin-7-yl)-5-(3-methoxyphenyl)cyclopentane-1,2-diol] | –
10 to 100 nM | 100 to 1000 nM | 10 to 15 °C | Nc1nc(Cl)nc2c1ccn2[C@@H]1C[C@H](c2cccc(CN3CCC3)c2)[C@@H](O)[C@H]1O [Compound 672, (1R,2S,3R,5R)-3-(4-amino-2-chloro-7H-pyrrolo[2,3-d]pyrimidin-7-yl)-5-(3-(azetidin-1-ylmethyl)phenyl)cyclopentane-1,2-diol] | –
≤ 10 nM | 100 to 1000 nM | 15 to 20 °C | Nc1nc(Cl)nc2c1c(Br)cn2[C@@H]1C[C@H](c2cccc(CN3CCC3)c2)[C@@H](O)[C@H]1O [Compound 673, (1R,2S,3R,5R)-3-(4-amino-5-bromo-2-chloro-7H-pyrrolo[2,3-d]pyrimidin-7-yl)-5-(3-(azetidin-1-ylmethyl)phenyl)cyclopentane-1,2-diol] | –
≤ 10 nM | 100 to 1000 nM | 15 to 20 °C | Cn1ccc(-c2cn([C@@H]3C[C@H](c4cccc(CN5CCC5)c4)[C@@H](O)[C@H]3O)c3nc(Cl)nc(N)c23)n1 [Compound 674, (1R,2S,3R,5R)-3-(4-amino-2-chloro-5-(1-methyl-1H-pyrazol-3-yl)-7H-pyrrolo[2,3-d]pyrimidin-7-yl)-5-(3-(azetidin-1-ylmethyl)phenyl)cyclopentane-1,2-diol] | –
≤ 10 nM | 100 to 1000 nM | 15 to 20 °C | Cn1cc(Cl)c(-c2cn([C@@H]3C[C@H](c4cccc(CN5CCC5)c4)[C@@H](O)[C@H]3O)c3nc(Cl)nc(N)c23)n1 [Compound 675, (1R,2S,3R,5R)-3-(4-amino-2-chloro-5-(4-chloro-1-methyl-1H-pyrazol-3-yl)-7H-pyrrolo[2,3-d]pyrimidin-7-yl)-5-(3-(azetidin-1-ylmethyl)phenyl)cyclopentane-1,2-diol] | –
10 to 100 nM | 1000 to 10000 nM | ≤ 10 °C | Nc1nc(Cl)nc2c1ccn2[C@@H]1C[C@H](c2cccc(OC(F)F)c2)[C@@H](O)[C@H]1O [Compound 676, (1R,2S,3R,5R)-3-{4-amino-2-chloropyrrolo[2,3-d]pyrimidin-7-yl}-5-[3-(difluoromethoxy)phenyl]cyclopentane-1,2-diol] | –
10 to 100 nM | 1000 to 10000 nM | 10 to 15 °C | COc1cc(OC)cc([C@H]2C[C@@H](n3cc(Br)c4c(N)nc(Cl)nc43)[C@H](O)[C@@H]2O)c1 [Compound 677, (1R,2S,3R,5R)-3-{4-amino-5-bromo-2-chloropyrrolo[2,3-d]pyrimidin-7-yl}-5-(3,5-dimethoxyphenyl)cyclopentane-1,2-diol] | –
100 to 1000 nM | 1000 to 10000 nM | 10 to 15 °C | COc1cc(OC)cc([C@H]2C[C@@H](n3cc(-c4ccn(C)n4)c4c(N)nc(Cl)nc43)[C@H](O)[C@@H]2O)c1 [Compound 678, (1R,2S,3R,5R)-3-[4-amino-2-chloro-5-(1-methylpyrazol-3-yl)pyrrolo[2,3-d]pyrimidin-7-yl]-5-(3,5-dimethoxyphenyl)cyclopentane-1,2-diol] | –
100 to 1000 nM | 1000 to 10000 nM | ≤ 10 °C | COc1cc(OC)cc([C@H]2C[C@@H](n3cc(-c4ccn(Cc5ccccc5)n4)c4c(N)nc(Cl)nc43)[C@H](O)[C@@H]2O)c1 [Compound 679, (1R,2S,3R,5R)-3-[4-amino-5-(1-benzylpyrazol-3-yl)-2-chloropyrrolo[2,3-d]pyrimidin-7-yl]-5-(3,5-dimethoxyphenyl)cyclopentane-1,2-diol] | –
10 to 100 nM | 100 to 1000 nM | 10 to 15 °C | COc1cc([C@H]2C[C@@H](n3cc(Br)c4c(N)nc(Cl)nc43)[C@H](O)[C@@H]2O)ccn1 [Compound 680, (1R,2S,3R,5R)-3-(4-amino-5-bromo-2-chloro-7H-pyrrolo[2,3-d]pyrimidin-7-yl)-5-(2-methoxypyridin-4-yl)cyclopentane-1,2-diol] | –
10 to 100 nM | 100 to 1000 nM | 10 to 15 °C | Nc1cc(-c2cnsc2)cc([C@H]2C[C@@H](n3ccc4c(N)nc(Cl)nc43)[C@H](O)[C@@H]2O)c1 [Compound 681, (1R,2S,3R,5R)-3-(4-Amino-2-chloro-7H-pyrrolo[2,3-d]pyrimidin-7-yl)-5-(3-amino-5-(isothiazol-4-yl)phenyl)cyclopentane-1,2-diol] | –
10 to 100 nM | 100 to 1000 nM | 10 to 15 °C | COc1ccc([C@H]2C[C@@H](n3ccc4c(N)nc(Cl)nc43)[C@H](O)[C@@H]2O)cc1 [Compound 682, (1R,2S,3R,5R)-3-{4-Amino-2-chloropyrrolo[2,3-d]pyrimidin-7-yl}-5-(4-methoxyphenyl)cyclopentane-1,2-diol] | –
